Paper PMC10056986 (Pharmaceuticals, 2023)

Assays:
CDK2 = CDK2 (Homo sapiens, UniProt P24941); assay: biochemical
EPHA2 = EPHA2 (Homo sapiens, UniProt P29317); assay: biochemical
op-delta = op-delta (Homo sapiens, UniProt P41143); assay: cell-based
RSV long = assay: microbe, parasite or virus in culture; assay type: cell-based, respiratory syncytial virus; conditions: human respiratory syncytial virus, HEp-2, read-out: EC50 for Virus
in vivo = conditions: female, BALB/c, mouse, po
HRV 1B = assay: microbe, parasite or virus in culture; assay type: cell-based; conditions: Human rhinovirus sp., H1-HeLa, read-out: EC50 for Virus
MAP4K4 = MAP4K4 (Homo sapiens, UniProt O95819); assay: biochemical
Eta [1] = molecular target: T1, Eta (Homo sapiens, UniProt P25101); assay: cell-based
M2 = M2 (Homo sapiens, UniProt P08172); assay: cell-based
Beta1 [2] = molecular target: T2, Beta1 (Homo sapiens, UniProt P08588); assay: cell-based
5HT2A = 5HT2A (Homo sapiens, UniProt P28223); assay: cell-based
HCV replicon 1b = assay: microbe, parasite or virus in culture; assay type: cell-based; conditions: Hepatitis C virus, read-out: EC50 for Virus
LCK = LCK (Homo sapiens, UniProt P06239); assay: biochemical
[3] = system: Influenza virus A/California/2/2014 (H3N2); assay: microbe, parasite or virus in culture; assay type: cell-based; conditions: H3N2, MDCK, read-out: EC50 (mean ± SD)
Beta1 [4] = molecular target: T2, Beta1; assay: cell-based; remark: listed apart in the source
ABL1 = ABL1 (Homo sapiens, UniProt P00519); assay: biochemical
p38 alpha = p38 alpha (Homo sapiens, UniProt Q16539); assay: biochemical
Eta [5] = molecular target: T1, Eta; assay: cell-based; remark: listed apart in the source
CB2 = CB2 (Homo sapiens, UniProt P34972); assay: cell-based
[6] = system: Influenza virus A/PR/8/34 (H1N1); assay: microbe, parasite or virus in culture; assay type: cell-based; conditions: H1N1|PR/8, MDCK, read-out: EC50 (mean ± SD)
H1 = H1 (Homo sapiens, UniProt P35367); assay: cell-based
in vitro = conditions: human
[7] = system: H1N1 and H3N2 influenza A virus strains; assay: in vitro; conditions: dog
KDR = KDR (Homo sapiens, UniProt P35968); assay: biochemical
A/PR/8/34 (H1N1) = system: A/PR/8/34 (H1N1); design: species or system BALB/c mice; conditions: mouse, in vivo
[8] = system: Influenza virus A/Weiss/43(H1N1); assay: microbe, parasite or virus in culture; assay type: cell-based; conditions: H1N1, MDCK, read-out: EC50 (mean ± SD)
H2 = H2 (Homo sapiens, UniProt P25021); assay: cell-based
[9] = system: Influenza virus A/California/07/2009 (H1N1)pdm09; assay: microbe, parasite or virus in culture; assay type: cell-based; conditions: H1N1, MDCK, read-out: EC50 (mean ± SD)
5HT1A = 5HT1A (Homo sapiens, UniProt P08908); assay: cell-based
Aurora A = Aurora A (Homo sapiens, UniProt O14965); assay: biochemical
D2 = D2 (Homo sapiens, UniProt P14416); assay: cell-based
Influenza virus B/Lee/40 = assay: microbe, parasite or virus in culture; assay type: cell-based; conditions: MDCK, read-out: EC50 (mean ± SD)
[10] = system: A/Guangzhou/39715/2014 (H5N6); assay: microbe, parasite or virus in culture; assay type: cell-based, avian influenza virus; conditions: unidentified influenza virus, H5N6, MDCK, read-out: IC50 (mean ± SD)
[11] = system: Influenza virus A/WSN/33 (H1N1); assay: microbe, parasite or virus in culture; assay type: cell-based; conditions: MDCK, read-out: EC50 (mean ± SD)
Alpha2a = Alpha2a (Homo sapiens, UniProt P08913); assay: cell-based
V1a = V1a (Homo sapiens, UniProt P37288); assay: cell-based
FGFR1 = FGFR1 (Homo sapiens, UniProt P11362); assay: biochemical
[12] = rat, in vivo, 15 mg/kg
[13] = 10,000 nM, read-out: Inhibition at Maximum Concentration (%)

T2 sequence (P08588 whole entry): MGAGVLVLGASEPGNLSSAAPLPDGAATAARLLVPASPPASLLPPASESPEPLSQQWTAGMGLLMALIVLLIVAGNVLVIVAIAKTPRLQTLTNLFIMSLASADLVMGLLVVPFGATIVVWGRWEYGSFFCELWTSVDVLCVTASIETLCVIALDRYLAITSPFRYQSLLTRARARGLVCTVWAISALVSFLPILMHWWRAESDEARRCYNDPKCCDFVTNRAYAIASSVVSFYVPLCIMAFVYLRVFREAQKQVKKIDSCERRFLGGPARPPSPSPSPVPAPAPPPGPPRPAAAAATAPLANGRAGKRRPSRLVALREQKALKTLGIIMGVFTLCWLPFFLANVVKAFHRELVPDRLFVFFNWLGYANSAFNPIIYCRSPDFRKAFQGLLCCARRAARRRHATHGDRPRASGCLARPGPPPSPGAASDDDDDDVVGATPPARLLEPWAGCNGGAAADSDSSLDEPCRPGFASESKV
T1 sequence (P25101 21-427): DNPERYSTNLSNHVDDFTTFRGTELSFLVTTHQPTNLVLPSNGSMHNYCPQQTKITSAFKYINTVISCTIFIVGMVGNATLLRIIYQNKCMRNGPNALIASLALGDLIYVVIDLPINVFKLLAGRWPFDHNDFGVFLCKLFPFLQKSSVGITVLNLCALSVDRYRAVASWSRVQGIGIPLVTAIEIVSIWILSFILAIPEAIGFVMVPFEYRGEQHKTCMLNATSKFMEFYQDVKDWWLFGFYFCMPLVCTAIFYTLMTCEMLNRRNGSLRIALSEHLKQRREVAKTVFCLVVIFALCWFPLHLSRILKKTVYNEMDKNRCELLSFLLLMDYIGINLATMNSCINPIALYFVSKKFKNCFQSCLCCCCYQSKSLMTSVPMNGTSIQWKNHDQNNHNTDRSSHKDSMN
V1a, sequence (P37288 whole entry): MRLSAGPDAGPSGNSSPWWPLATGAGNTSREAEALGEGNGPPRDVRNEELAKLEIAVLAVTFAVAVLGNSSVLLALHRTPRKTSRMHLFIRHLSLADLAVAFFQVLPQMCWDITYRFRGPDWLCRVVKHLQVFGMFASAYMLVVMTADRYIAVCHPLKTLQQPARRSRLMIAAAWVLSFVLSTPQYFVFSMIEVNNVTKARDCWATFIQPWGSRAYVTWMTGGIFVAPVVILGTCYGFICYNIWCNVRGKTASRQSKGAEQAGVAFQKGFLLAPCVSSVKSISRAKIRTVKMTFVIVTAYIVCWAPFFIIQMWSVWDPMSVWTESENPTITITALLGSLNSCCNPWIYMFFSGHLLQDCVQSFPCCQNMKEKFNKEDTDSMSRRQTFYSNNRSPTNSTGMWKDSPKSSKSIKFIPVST
H1, sequence (P35367 whole entry): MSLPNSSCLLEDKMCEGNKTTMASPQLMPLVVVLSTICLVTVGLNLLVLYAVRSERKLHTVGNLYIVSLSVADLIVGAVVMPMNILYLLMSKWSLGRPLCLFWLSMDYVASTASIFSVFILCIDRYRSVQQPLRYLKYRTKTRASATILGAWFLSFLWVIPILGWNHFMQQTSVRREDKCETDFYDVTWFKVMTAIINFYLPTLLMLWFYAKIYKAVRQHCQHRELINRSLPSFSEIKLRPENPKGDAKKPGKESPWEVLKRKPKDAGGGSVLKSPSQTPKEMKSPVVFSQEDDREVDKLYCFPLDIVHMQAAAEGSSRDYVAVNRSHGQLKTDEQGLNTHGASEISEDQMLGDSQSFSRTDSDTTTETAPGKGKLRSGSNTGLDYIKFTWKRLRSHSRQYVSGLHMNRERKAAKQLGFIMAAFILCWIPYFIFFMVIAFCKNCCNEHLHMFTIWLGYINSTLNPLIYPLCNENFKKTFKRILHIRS
5HT1A, sequence (P08908 whole entry): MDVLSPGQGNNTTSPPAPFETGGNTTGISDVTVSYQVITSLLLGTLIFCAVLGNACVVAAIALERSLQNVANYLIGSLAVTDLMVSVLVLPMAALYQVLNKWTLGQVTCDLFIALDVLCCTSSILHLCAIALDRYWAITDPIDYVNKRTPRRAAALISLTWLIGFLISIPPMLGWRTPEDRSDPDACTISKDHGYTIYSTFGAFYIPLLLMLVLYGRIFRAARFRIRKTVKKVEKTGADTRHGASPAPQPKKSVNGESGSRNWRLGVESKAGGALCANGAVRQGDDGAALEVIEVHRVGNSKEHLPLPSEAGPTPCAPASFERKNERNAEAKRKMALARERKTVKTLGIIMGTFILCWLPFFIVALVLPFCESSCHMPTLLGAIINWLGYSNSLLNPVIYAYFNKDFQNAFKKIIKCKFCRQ
D2, sequence (P14416 whole entry): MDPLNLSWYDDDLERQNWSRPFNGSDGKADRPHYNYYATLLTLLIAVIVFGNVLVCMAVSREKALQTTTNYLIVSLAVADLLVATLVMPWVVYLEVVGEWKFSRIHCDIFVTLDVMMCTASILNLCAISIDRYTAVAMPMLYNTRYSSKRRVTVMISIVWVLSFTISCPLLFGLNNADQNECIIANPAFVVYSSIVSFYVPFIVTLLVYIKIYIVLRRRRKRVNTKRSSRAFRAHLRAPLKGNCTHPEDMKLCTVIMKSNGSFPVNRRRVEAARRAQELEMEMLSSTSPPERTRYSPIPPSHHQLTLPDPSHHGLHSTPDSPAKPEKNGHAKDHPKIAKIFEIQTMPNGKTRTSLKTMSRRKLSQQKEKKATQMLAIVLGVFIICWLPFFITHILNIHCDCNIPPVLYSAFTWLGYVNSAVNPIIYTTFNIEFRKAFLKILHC
op-delta, sequence (P41143 whole entry): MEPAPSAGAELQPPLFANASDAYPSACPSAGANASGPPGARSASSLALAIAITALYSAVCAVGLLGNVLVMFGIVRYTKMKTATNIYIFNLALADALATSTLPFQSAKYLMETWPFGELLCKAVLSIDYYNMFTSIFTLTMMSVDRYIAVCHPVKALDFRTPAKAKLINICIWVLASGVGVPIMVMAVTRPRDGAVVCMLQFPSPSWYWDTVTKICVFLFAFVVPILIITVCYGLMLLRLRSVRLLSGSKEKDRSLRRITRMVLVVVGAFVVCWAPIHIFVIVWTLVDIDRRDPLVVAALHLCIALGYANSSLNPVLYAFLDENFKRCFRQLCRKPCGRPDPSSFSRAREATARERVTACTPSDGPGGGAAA
Alpha2a, sequence (P08913 whole entry): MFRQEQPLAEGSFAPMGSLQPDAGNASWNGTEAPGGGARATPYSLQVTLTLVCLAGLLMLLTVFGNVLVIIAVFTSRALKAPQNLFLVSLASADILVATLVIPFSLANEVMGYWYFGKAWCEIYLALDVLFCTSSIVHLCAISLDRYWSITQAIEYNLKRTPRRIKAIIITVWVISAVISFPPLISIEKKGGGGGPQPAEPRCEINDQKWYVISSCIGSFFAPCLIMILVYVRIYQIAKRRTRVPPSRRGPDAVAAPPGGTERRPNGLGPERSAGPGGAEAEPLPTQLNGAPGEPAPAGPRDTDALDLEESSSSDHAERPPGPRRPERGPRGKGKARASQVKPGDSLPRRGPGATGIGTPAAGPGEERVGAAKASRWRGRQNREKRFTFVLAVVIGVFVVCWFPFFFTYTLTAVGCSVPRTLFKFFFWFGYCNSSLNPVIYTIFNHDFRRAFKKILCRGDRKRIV
M2, sequence (P08172 whole entry): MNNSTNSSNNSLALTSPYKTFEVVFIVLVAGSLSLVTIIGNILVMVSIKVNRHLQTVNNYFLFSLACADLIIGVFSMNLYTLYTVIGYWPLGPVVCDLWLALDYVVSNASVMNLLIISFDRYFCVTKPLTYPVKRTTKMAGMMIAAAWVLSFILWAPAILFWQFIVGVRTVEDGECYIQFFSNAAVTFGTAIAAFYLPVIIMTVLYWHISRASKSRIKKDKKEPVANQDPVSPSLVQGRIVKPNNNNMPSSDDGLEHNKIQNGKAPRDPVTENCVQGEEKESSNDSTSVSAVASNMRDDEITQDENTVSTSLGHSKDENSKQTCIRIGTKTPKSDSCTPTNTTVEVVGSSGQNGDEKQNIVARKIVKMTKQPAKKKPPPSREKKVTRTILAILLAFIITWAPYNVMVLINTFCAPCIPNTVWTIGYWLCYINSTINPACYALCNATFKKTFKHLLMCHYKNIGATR
5HT2A, sequence (P28223 whole entry): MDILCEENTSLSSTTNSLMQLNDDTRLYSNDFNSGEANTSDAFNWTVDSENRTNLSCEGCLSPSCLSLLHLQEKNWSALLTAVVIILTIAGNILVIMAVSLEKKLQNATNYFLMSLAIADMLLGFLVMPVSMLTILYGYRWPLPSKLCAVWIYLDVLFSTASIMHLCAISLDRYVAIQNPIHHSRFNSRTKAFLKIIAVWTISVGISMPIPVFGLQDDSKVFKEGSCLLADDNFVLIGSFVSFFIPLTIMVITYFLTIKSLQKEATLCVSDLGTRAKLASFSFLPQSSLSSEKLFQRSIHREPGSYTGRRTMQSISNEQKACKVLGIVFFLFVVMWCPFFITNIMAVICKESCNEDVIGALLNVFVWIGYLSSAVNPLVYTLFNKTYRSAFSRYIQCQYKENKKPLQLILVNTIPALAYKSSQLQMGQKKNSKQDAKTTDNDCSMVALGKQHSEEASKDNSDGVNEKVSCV
CB2, sequence (P34972 whole entry): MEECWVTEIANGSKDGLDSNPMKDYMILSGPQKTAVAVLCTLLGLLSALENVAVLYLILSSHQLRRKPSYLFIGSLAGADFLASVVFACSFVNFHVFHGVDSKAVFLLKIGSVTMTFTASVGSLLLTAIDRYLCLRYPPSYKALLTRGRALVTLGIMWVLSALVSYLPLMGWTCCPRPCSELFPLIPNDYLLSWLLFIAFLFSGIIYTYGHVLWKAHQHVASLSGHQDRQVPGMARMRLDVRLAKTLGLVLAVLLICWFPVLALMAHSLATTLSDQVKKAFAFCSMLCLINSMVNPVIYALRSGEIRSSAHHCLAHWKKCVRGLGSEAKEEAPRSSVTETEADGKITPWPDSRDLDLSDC

SMILES: O=C(O)[C@H]1C2CCC(CC2)[C@@H]1Nc1nc(-c2n[nH]c3ncc(F)cc23)nc(C2CC2)c1F [ZSP1273]
- IC50 (CDK2): > 10 µM
- IC50 (EPHA2): > 10 µM
- IC50 (op-delta): > 10 µM
- inhibition at 10 µM (op-delta; [13]): 7.37%
- EC50 (RSV long): > 10 µM
- AUC(0-t) (in vivo; 3 mg/kg): 1040 ng·h/mL
- Cmax (in vivo; 3 mg/kg): 439 ng/mL
- AUC(0-t) (in vivo; 10 mg/kg): 6190 ng·h/mL
- Cmax (in vivo; 10 mg/kg): 3010 ng/mL
- AUC(0-t) (in vivo; 30 mg/kg): 56000 ng·h/mL
- Cmax (in vivo; 30 mg/kg): 23700 ng/mL
- EC50 (HRV 1B): 7.88 µM
- IC50 (MAP4K4): > 10 µM
- EC50 (Eta [1]): > 12 µM
- Activity at Maximum Concentration (%) (Eta [1]; 12,000 nM): −1.16%
- EC50 (M2): > 12 µM
- Activity at Maximum Concentration (%) (M2; 12,000 nM): −3%
- EC50 (Beta1 [2]): > 12 µM
- Activity at Maximum Concentration (%) (Beta1 [2]; 12,000 nM): 0.54%
- EC50 (5HT2A): > 12 µM
- Activity at Maximum Concentration (%) (5HT2A; 12,000 nM): −21.27%
- EC50 (HCV replicon 1b): > 10 µM
- IC50 (LCK): > 10 µM
- EC50 [3]: 0.01 ± 0.0002 nM
- IC50 (Beta1 [4]): > 10 µM
- inhibition at 10 µM (Beta1 [4]; [13]): -22.7%
- IC50 (ABL1): > 10 µM
- IC50 (p38 alpha): > 10 µM
- IC50 (Eta [5]): > 10 µM
- inhibition at 10 µM (Eta [5]; [13]): 9.07%
- EC50 (CB2): > 12 µM
- Activity at Maximum Concentration (%) (CB2; 12,000 nM): −17.1%
- EC50 [6]: 0.042 ± 0.01 nM
- EC50 (H1): > 12 µM
- Activity at Maximum Concentration (%) (H1; 12,000 nM): 0.73%
- CC50 (in vitro): > 10 µM
- selectivity ratio [7]: > 25000
- IC50 (KDR): > 10 µM
- mortality (A/PR/8/34 (H1N1)): 40%
- EC50 [8]: 0.012 ± 0.002 nM
- IC50 (H2): > 10 µM
- inhibition at 10 µM (H2; [13]): 42.4%
- EC50 [9]: 0.02 ± 0.003 nM
- IC50 (5HT1A): > 10 µM
- inhibition at 10 µM (5HT1A; [13]): 19%
- IC50 (Aurora A): 527 nM
- IC50 (D2): > 10 µM
- inhibition at 10 µM (D2; [13]): 13.6%
- EC50 (Influenza virus B/Lee/40): > 1 nM
- IC50 [10]: 0.245 ± 0.03 nM
- EC50 [11]: 0.063 ± 0.028 nM
- IC50 (Alpha2a): > 10 µM
- inhibition at 10 µM (Alpha2a; [13]): -9.3%
- EC50 (V1a): > 12 µM
- Activity at Maximum Concentration (%) (V1a; 12,000 nM): 6.27%
- IC50 (FGFR1): > 10 µM
- accumulation (AUC0-last and Cmax, day 7 vs day 1) [12]: No significant accumulation
